# Test results taken from patent publication US5827895A, “Hexahydrolupulones useful as anticancer agents” (Regents of the University of Minnesota, priority 1996, dated 1998).
# Like-named read-outs stand apart in the source and are kept apart here.
# What was measured:
# [1] = tested on: MCF-7 cells (human breast adenocarcinoma); experiment: Trypan blue exclusion assay, cytostatic activity, MCF-7; format: cell-based; details: MCF7, incubation 48h, 3 experiments, read-out: ID50 (the source's name)
# [2] = tested on: CEM cells (human acute lymphoblastic leukemia); experiment: Trypan blue exclusion assay, cytostatic activity, CEM; format: cell-based; details: CCRF-CEM, incubation 48h, 4 experiments, read-out: ID50 (the source's name)
# [3] = tested on: CEM vinblastin resistant cells; experiment: Trypan blue exclusion assay, cytostatic activity, CEM vinblastin resistant; format: cell-based; details: Homo sapiens; CEM vin resistant; incubation 48h; 4 experiments; read-out: ID50 (the source's name)
# [4] = tested on: Raji cells (human Burkitt lymphoma); experiment: Trypan blue exclusion assay, cytostatic activity, Raji; format: cell-based; details: incubation 24h, 4 experiments, read-out: ID50 (the source's name)
# [5] = tested on: HeLa S3 cells (human cervical epithelioid carcinoma); experiment: Trypan blue exclusion assay, cytostatic activity, HeLa S3; format: cell-based; details: incubation 24h, 3 experiments, read-out: ID50 (the source's name)
# MCF-7 cells = experiment: Colony formation (clonogenic) assay, cytotoxic activity, 18 hour pulse exposure; format: cell-based; details: Homo sapiens, MCF7, 2 experiments, read-out: ID50 (the source's name)
# Method: HHC was tested for cytotoxic activity using a colony formation assay, using an 18 hour pulse exposure. The purpose of the clonogenic assay is to determine the concentration of HHC at which 50% of cell growth is inhibited (i.e., IC50) when cells are exposed to the HHC for a defined amount of time (i.e., a pulse exposure to the xenobiotic).
# Five ml of a mixture of 2×10^5 cells/ml (MCF-7 cells) were placed in each of 4 T-25 flasks in a media of RPMI (Gibco). The cells were incubated at 37 ° C. under 5% CO2 for a minimum of 14 hours to allow the cells to attach. The cells were pulsed for 18 hours with HHC concentrations of 0, 1.5, and 25 μM, or with DMSO.
# The media was removed from the flasks (i.e., media with floating cells) and placed in 15 ml polypropylene centrifuge tubes 1-4 (summarized in Table II). […]
# The cells in the original cell suspension (i.e., in the flask) were counted using trypan blue exclusion assay (described in Example II). Based on this count, the number of cells in the 50x tubes were calculated. The volume necessary to acquire approximately 5400 cells was then determined. […]
# Five ml of suspension from each of tubes 13-16 was transferred to 60×15 mm tissue culture dishes (in triplicate). […] The cells were counted in those colonies which consisted of at least 50 cells. The ID50 was determined as described in Example II.
# [6] = tested on: C1300 cells (mouse neuroblastoma); experiment: In vitro ID50 in C1300 mouse neuroblastoma cells; format: cell-based; details: Neuroblastoma cell; 48 hours of continuous exposure; preliminary data
# Method: C1300 cells (mouse neuroblastoma), a murine tumor cell model which is sensitive to HHC were evaluated.
# Staphylococcus aureus = experiment: Growth of Staphylococcus aureus in LB broth by OD600 (FIG. 1); format: cell-based; details: 0.5-25 μM
# Method: A single colony of Staphylococcus aureus was grown in 2 ml of Luria-Bertani(LB) broth overnight at 37° C. in a bacterial shaker with vigorous shaking. 0.5 ml of the culture was transferred to 250 ml LB and allowed to grow at 37° C. until the OD600 (optical density) reading was about 0.2 (a reading of 1 OD600 indicates a cell concentration of approximately 8×10^8 cells/ml). […] No-drug and DMSO solvent were used as controls. Aliquots of the bacterial culture were taken every 2 hours to obtain the OD600 reading.
# Staphylococcus Aureas = experiment: Minimum inhibitory concentration, Staphylococcus aureus; format: cell-based
# [7] = tested on: VRE (Vancomycin resistant enterococcus); experiment: Minimum inhibitory concentration, VRE; format: cell-based
# [8] = tested on: M. tuberculosis (ATCC 27294); experiment: BACTEC drug susceptibility, M. tuberculosis; format: cell-based; details: Mycobacterium tuberculosis, ATCC27294
# [9] = tested on: DNA, RNA or protein synthesis; experiment: Other studies on DNA, RNA or protein synthesis in cancer cells; format: cell-based
# [10] = tested on: VRE (Vancomycin Resistant Enterococcus faeclum); details: threshold not given
# Listeria monocytogenes = details: U.S. Pat. Nos. 5,286,506; 5,455,038; cited from earlier work
# [11] = tested on: VRE (Vancomycin Resistant Enterococcus faeclum); experiment: microbe, parasite or virus in culture
# Method: (§1) HHC was also tested for effectiveness against various bacterial isolates obtained from human subjects.
# E. Coli = experiment: Minimum inhibitory concentration, E. coli; details: Escherichia coli
# Pseudomonas = experiment: Minimum inhibitory concentration, Pseudomonas
# [12] = tested on: OxaRSA (Oxacillin Resistant Staphylococcus aureus); experiment: Patient isolates evaluated for antibiotic sensitivity, OxaRSA
# Method: as §1
smiles,measurement,setting,value
"CC(C)CCC1=C(O)C(C(=O)C(C)C)=C(O)C(CCC(C)C)(CCC(C)C)C1=O [HHC, hexahydrocolupulone]",IC50,[1],1.23 µM
same,IC50,[2],1.97 µM
same,IC50,[3],2.61 µM
same,IC50,[4],2.19 µM
same,IC50,[5],1.21 µM
same,IC50,MCF-7 cells,1.62 µM
same,IC50,[6],~1.94 µM
same,inhibition of bacterial growth (OD600),Staphylococcus aureus,effective inhibitor of bacterial growth
same,MIC,"Staphylococcus Aureas; Staphylococcus Aureas, read-out: MIC",5 µM
same,MIC,"Staphylococcus Aureas; read-out: MIC, HHC positive control",2.03 µg/mL
same,cross resistance with vancomycin,[7],not cross resistant with vancomycin
same,MIC,[7]; Enterococcus,5 µM
same,inhibition at 50 µM,"[8]; 50 μM, read-out: inhibition of tuberculosis growth",> 99%
same,inhibition at 100 µM,"[8]; 100 μM, read-out: inhibition of TB growth",100%
same,"cytotoxic effect on cancer cells: effects upon DNA, RNA or protein synthesis",[9],"not due to major effects upon DNA, RNA or protein synthesis"
same,antibiotic sensitivity,[10]; patient A,S
same,antibiotic sensitivity,[10]; patient B,S
same,antibiotic sensitivity,[10]; patient C,S
same,growth inhibition of food pathogens,Listeria monocytogenes,"can inhibit the growth of food pathogens, such as Listeria monocytogenes"
same,MIC,"[11]; read-out: [HHC] (MIC), patient A, VRE",1.01 µg/mL
same,MIC,"[11]; read-out: [HHC] (MIC), patient B, VRE",4.06 µg/mL
same,MIC,"[11]; read-out: [HHC] (MIC), patient C, VRE",2.03 µg/mL
same,MIC,E. Coli,> 100 µM
same,MIC,"E. Coli; read-out: MIC, HHC negative control",100 µg/mL
same,MIC,Pseudomonas,> 100 µM
same,MIC,"[12]; Staphylococcus aureus, read-out: [HHC] (MIC)",1.01 µg/mL
same,antibiotic sensitivity,"[12]; patient G, OxaRSA, threshold not given",S
